For 7 compounds, IC50 results are on record in BindingDB's records for doi:10.1021/jm00083a001 (Ici Pharmaceuticals Group, 1992).

A short description of the assay: Inhibition of prolyl 4-hydroxylase.

`O=C(NS(=O)(=O)Cc1ccccc1)c1ccc(C(=O)O)nc1`: half-maximal inhibition (IC50) required 3000 nM.

In turn, `O=C(NS(=O)(=O)c1cccc2ccccc12)c1ccc(C(=O)O)nc1` returned a half-inhibitory concentration (IC50) of 4400 nM.

Turning to `O=C(NS(=O)(=O)c1cc(Br)c(Br)s1)c1ccc(C(=O)O)nc1`, half-maximal inhibition (IC50) was put at 8500 nM.

As to `O=C(NS(=O)(=O)c1ccc(Cl)s1)c1ccc(C(=O)O)nc1`, 2400 nM corresponded to half-maximal inhibition (IC50).

Compound `O=C(NS(=O)(=O)c1cccc2cccnc12)c1ccc(C(=O)O)nc1` showed an IC50 of 1800 nM.

Compound `O=C(NS(=O)(=O)c1ccc(-c2cc(Cl)c3ccc(Cl)cc3n2)cc1)c1ccc(C(=O)O)nc1` showed an IC50 of 6600 nM.

`CS(=O)(=O)NC(=O)c1ccc(C(=O)O)nc1`: the IC50 was 1800 nM.

By IC50 is commonly meant the concentration that inhibits the measured activity by half. A low value points to greater potency in that assay.
